Source: patent US12435072B2, “Compounds” (Vicore Pharma AB, priority 2019, dated 2025)

Tests used:
CYP2C19 = target: T1, CYP2C19 (Homo sapiens, UniProt P33261); assay: CYP inhibition in human liver microsomes, CYP2C19; format: in vitro ADME; conditions: probe omeprazole, substrate omeprazole, read-out: CYP2C19 Inh %
T1 construct: incubated with human liver microsomes; tissue Eurofins ITEMG232; host or cells: human liver microsomes
Procedure: (§1) The following substrates were used: CYP1A phenacetin, CYP2B6 bupropion, CYP2C8 paclitaxel and amodiaquine, CYP2C9 diclofenac, CYP2C19 omeprazole, CYP2D6 dextromethorphan, CYP3A midazolam and testosterone. At the end of the incubation, the formation of metabolite was monitored by HPLC-MS/MS as the peak area response.

CYP2D6 = target: T2, CYP2D6 (Homo sapiens, UniProt P10635); assay: CYP inhibition in human liver microsomes, CYP2D6; format: in vitro ADME; conditions: probe dextromethorphan, substrate dextromethorphan, read-out: CYP2D6 Inh %
T2 construct: incubated with human liver microsomes; tissue Eurofins ITEMG232; host or cells: human liver microsomes
Method in brief: (§2)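 Human liver microsomes were incubated with isoform-selective probe substrates: diclofenac for CYP2C9, dextromethorphan for CYP2D6, and paclitaxel and amodiaquine for CYP2C8. After incubation, metabolite formation was measured by HPLC-MS/MS as peak area response.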

CYP1A = target: T3, CYP1A (Homo sapiens, UniProt P05177); assay: CYP inhibition in human liver microsomes, CYP1A; format: in vitro ADME; conditions: probe phenacetin, substrate phenacetin, read-out: CYP1A Inh %
T3 construct: incubated with human liver microsomes; tissue Eurofins ITEMG232; host or cells: human liver microsomes
T3 sequence (P05177 1-516): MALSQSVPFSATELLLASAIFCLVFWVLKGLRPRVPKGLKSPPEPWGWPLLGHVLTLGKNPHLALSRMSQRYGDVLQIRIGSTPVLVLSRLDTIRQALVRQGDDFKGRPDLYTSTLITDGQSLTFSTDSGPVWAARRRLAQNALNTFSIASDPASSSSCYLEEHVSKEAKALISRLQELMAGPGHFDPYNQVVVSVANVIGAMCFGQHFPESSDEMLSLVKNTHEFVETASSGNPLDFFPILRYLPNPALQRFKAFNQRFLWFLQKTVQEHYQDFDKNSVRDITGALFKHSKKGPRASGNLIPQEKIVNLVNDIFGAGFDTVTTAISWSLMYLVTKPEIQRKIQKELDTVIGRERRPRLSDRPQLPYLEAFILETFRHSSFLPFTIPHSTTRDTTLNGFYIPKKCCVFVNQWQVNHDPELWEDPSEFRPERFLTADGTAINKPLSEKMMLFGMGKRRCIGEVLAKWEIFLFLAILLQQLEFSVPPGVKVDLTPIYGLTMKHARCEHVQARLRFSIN
Procedure: as §1

CYP3A4 = CYP3A4 (Homo sapiens, UniProt P08684); assay: CYP inhibition in human liver microsomes, CYP3A4 (midazolam); format: in vitro ADME; set-up: incubated with human liver microsomes; tissue Eurofins ITEMG232; host or cells: human liver microsomes; conditions: probe midazolam, substrate midazolam, read-out: CYP3A4 midazolam Inh %
Procedure: as §1

[1] = target: T4, human recombinant AT2 receptor (Homo sapiens, UniProt P50052); assay: Binding to AT2 receptor, radiometric scintillation assay (Eurofins); conditions: ligand 125I CGP 42112A, tested at 1, 10, 100 and 1000 nM
T4 construct: purchased Eurofins ITEM26
T4 sequence (P50052 1-363): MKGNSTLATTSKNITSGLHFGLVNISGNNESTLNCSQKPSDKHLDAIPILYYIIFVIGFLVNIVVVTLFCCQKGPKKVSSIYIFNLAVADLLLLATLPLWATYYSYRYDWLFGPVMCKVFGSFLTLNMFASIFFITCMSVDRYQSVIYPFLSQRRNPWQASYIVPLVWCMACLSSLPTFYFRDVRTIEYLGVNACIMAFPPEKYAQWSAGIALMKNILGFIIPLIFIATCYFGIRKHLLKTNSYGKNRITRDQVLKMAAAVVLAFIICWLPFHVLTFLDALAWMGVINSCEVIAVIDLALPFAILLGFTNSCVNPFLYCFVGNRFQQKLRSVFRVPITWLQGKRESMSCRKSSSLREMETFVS
Procedure: Compounds were evaluated for binding to the human recombinant AT2 and AT1 receptor according to Eurofins protocol ITEM26 and ITEM24 using a radiometric scintillation assay.

CYP2C8 = target: T5, CYP2C8 (Homo sapiens, UniProt P10632); assay: CYP inhibition in human liver microsomes, CYP2C8; format: in vitro ADME; conditions: probe paclitaxel and amodiaquine, substrate paclitaxel and amodiaquine, read-out: CYP2C8 Inh %
T5 construct: incubated with human liver microsomes; tissue Eurofins ITEMG232; host or cells: human liver microsomes
T5 sequence (P10632 1-490): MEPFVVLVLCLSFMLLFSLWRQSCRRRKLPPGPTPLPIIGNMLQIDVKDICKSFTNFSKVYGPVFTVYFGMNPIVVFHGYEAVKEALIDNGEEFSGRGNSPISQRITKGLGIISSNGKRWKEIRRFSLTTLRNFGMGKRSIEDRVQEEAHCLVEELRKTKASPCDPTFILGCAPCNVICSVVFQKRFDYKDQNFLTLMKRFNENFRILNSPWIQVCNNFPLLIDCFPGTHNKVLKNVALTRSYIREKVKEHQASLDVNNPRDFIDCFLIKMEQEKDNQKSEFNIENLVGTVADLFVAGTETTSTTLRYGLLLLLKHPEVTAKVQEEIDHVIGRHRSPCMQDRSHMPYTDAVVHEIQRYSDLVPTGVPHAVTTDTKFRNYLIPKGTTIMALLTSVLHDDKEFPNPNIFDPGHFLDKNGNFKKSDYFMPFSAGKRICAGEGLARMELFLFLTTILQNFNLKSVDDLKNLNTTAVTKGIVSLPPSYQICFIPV
Method in brief: as §2

CYP2C9 = CYP2C9 (Homo sapiens, UniProt P11712); assay: CYP inhibition in human liver microsomes, CYP2C9; format: in vitro ADME; set-up: incubated with human liver microsomes; tissue Eurofins ITEMG232; host or cells: human liver microsomes; conditions: probe diclofenac, substrate diclofenac, read-out: CYP2C9 Inh %
Method in brief: as §2

CYP2B6 = target: T6, CYP2B6 (Homo sapiens, UniProt P20813); assay: CYP inhibition in human liver microsomes, CYP2B6; format: in vitro ADME; conditions: probe bupropion, substrate bupropion, read-out: CYP2B6 Inh %
T6 construct: incubated with human liver microsomes; tissue Eurofins ITEMG232; host or cells: human liver microsomes
T6 sequence (P20813 1-491): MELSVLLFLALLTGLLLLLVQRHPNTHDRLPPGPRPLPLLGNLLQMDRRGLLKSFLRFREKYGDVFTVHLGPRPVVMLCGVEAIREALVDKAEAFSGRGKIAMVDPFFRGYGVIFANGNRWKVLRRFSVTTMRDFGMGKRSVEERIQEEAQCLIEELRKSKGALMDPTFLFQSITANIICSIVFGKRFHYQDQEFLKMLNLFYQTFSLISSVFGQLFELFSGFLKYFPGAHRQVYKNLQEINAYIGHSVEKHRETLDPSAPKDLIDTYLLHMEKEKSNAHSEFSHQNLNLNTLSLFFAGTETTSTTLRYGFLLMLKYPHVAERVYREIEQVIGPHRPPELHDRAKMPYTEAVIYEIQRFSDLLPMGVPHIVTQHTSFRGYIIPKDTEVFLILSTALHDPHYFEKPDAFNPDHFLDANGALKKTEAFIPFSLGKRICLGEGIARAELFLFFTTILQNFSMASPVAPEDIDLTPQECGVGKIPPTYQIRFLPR
Procedure: as §1

CYP3A4&5 = assay: CYP inhibition in human liver microsomes, CYP3A4&5 (testosterone); format: in vitro ADME; conditions: probe testosterone, substrate testosterone, read-out: CYP3A4&5 testosterone Inh %
Procedure: as §1

T2 sequence (P10635 whole entry): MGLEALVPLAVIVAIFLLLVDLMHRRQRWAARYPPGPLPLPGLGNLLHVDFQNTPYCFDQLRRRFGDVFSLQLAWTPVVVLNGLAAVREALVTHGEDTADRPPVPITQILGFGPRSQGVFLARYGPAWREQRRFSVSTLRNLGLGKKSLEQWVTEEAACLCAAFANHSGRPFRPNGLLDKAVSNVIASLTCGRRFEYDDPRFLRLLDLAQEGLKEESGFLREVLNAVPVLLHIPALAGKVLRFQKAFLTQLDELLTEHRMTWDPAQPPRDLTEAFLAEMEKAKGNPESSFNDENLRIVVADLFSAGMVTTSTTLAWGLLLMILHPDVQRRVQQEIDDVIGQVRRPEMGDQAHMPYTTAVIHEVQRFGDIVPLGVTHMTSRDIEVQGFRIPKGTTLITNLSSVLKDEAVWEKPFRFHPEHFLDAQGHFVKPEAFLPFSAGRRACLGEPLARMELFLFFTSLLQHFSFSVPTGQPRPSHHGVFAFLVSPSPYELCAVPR
T1 sequence (P33261 whole entry): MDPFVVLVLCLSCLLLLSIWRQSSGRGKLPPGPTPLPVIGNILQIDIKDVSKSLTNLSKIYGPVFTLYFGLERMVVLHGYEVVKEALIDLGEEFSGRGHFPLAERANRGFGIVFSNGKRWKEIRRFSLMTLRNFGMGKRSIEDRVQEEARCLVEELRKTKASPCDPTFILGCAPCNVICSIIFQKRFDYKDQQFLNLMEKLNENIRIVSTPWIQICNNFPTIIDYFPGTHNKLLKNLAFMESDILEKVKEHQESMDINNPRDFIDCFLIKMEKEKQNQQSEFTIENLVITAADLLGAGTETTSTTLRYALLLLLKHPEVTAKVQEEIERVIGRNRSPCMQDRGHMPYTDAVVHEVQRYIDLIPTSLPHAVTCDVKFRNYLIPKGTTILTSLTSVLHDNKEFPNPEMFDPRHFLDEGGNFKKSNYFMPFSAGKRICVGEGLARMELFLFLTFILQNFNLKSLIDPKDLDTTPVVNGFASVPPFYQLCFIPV
Chain of CYP3A4 (P08684 whole entry): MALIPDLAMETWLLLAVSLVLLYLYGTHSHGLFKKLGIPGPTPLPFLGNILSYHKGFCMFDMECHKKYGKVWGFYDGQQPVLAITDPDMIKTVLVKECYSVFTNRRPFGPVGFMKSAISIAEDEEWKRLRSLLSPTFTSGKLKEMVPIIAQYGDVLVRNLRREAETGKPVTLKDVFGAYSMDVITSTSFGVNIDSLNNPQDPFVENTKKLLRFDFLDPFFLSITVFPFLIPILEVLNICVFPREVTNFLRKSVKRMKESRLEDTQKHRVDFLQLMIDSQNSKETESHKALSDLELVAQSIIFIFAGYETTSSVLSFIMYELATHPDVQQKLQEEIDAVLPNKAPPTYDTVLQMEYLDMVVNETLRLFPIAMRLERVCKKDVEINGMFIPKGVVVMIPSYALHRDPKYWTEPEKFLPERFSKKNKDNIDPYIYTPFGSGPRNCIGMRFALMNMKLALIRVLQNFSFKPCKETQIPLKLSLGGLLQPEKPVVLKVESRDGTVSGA
Chain of CYP2C9 (P11712 whole entry): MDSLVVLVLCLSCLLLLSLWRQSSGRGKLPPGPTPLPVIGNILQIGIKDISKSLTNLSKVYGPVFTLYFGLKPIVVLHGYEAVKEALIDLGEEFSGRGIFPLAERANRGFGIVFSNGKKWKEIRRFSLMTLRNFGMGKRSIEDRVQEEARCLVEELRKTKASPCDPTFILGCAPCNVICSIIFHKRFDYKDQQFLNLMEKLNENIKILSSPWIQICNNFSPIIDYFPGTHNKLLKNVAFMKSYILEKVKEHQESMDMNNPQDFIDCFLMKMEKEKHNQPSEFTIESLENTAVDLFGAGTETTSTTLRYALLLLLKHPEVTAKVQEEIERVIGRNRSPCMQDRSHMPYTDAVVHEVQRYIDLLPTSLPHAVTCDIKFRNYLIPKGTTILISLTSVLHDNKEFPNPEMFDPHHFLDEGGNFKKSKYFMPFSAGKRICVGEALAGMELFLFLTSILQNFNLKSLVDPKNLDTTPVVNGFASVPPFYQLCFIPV

inhibition at 10 µM (CYP2C19)	inhibition at 10 µM (CYP2D6)	inhibition at 10 µM (CYP1A)	inhibition at 10 µM (CYP3A4)	IC50 [1]	inhibition at 10 µM (CYP2C8)	inhibition at 10 µM (CYP2C9)	inhibition at 10 µM (CYP2B6)	inhibition at 10 µM (CYP3A4&5)	SMILES
62%	30%	13%	30%	3.3 nM	78%	65%	43%	33%	Cc1nccn1Cc1ccc(-c2cc(CC(C)C)sc2S(=O)(=O)NC(=O)NCCC(F)(F)F)cc1F [Example 14, 3-(3-{3-Fluoro-4-[(2-methyl-1H-imidazol-1-yl)methyl]phenyl}-5-isobutyl-2-thienylsulfonyl)-1-(3,3,3-trifluoropropyl)urea]
67%	39%	-26%	35%	1.6 nM	65%	49%	25%	10%	CCc1nccn1Cc1ccc(-c2cc(CC(C)C)sc2S(=O)(=O)NC(=O)NCc2ccc(F)cc2)cc1F.O=C(O)C(F)(F)F [Example 32, 3-[(3-{4-[(2-ethyl-1H-imidazol-1-yl)methyl]-3-fluorophenyl}-5-(2-methylpropyl)thiophen-2-yl)sulfonyl]-1-[(4-fluorophenyl)methyl] urea trifluoroacetic acid]
57%	27.3%	6.8%	28.5%	3.5 nM	76.2%	51.4%	18.1%	13.2%	CCc1nccn1Cc1ccc(-c2cc(CC(C)C)sc2S(=O)(=O)NC(=O)NCc2ccccc2)cc1 [Example 6, 1-Benzyl-3-(3-{p-[(2-ethyl-1H-imidazol-1-yl)methyl]phenyl}-5-isobutyl-2-thienylsulfonyl)-urea]
50.4%	13.2%	7.3%	26.7%	14.8 nM	49.3%	27.9%	9.6%	14.7%	Cc1nccn1Cc1ccc(-c2cc(CC(C)C)sc2S(=O)(=O)NC(=O)NCCCC(F)(F)F)cc1 [Example 5, 3-(5-isobutyl-3-{p-[(2-Methyl-1H-imidazol-1-yl)methyl]phenyl}-2-thienylsulfonyl)-1-(4,4,4-trifluorobutyl)-urea]
37.5%	7.7%	10.5%	17.1%	10.5 nM	47.2%	31.3%	12.7%	8.2%	CCCCNC(=O)NS(=O)(=O)c1sc(CC(C)C)cc1-c1ccc(Cn2ccnc2C)cc1 [Example 4, 1-Butyl-3-(5-isobutyl-3-{p-[(2-methyl-1H-imidazol-1-yl)methyl]phenyl}-2-thienylsulfonyl)-urea]
80%	47%	-1%	85%	7.7 nM	64%	70%	54%	63%	Cc1nccn1Cc1ccc(-c2cc(CC(C)C)sc2S(=O)(=O)NC(=O)NCC2CCC(F)(F)CC2)cc1F.O=C(O)C(F)(F)F [Example 40, 1-[(4,4-difluorocyclohexyl)methyl]-3-[(3-{3-fluoro-4-[(2-methyl-1H-imidazol-1-yl)methyl]phenyl}-5-(2-methylpropyl)thiophen-2-yl)sulfonyl]urea trifluoroacetic acid]
59.1%	14.3%	7.3%	41.3%	4 nM	40%	49.7%	19%	21.4%	Cc1nccn1Cc1ccc(-c2cc(CC(C)C)sc2S(=O)(=O)NC(=O)NCc2ccccc2)cc1 [Example 1, 1-benzyl-3-[[5-isobutyl-3-[4-[(2-methylimidazol-1-yl)methyl]phenyl]-2-thienyl]sulfonyl]urea]
53%	12%	5%	-5%	4.9 nM	76%	58%	30%	10%	CC(C)Cc1cc(-c2ccc(Cn3ccnc3C(C)C)c(F)c2)c(S(=O)(=O)NC(=O)NCCC(F)(F)F)s1.O=C(O)C(F)(F)F [Example 41, 1-{[3-(3-fluoro-4-{[2-(propan-2-yl)-1H-imidazol-1-yl]methyl}phenyl)-5-(2-methylpropyl)thiophen-2-yl]sulfonyl}-3-(3,3,3-trifluoropropyl)urea trifluoroacetic acid]
80%	40%	-6%	74%	5.2 nM	64%	75%	57%	60%	Cc1nccn1Cc1ccc(-c2cc(CC(C)C)sc2S(=O)(=O)NC(=O)NCc2ccc(F)c(F)c2)cc1F.O=C(O)C(F)(F)F [Example 34, 1-[(3,4-difluorophenyl)methyl]-3-[(3-{3-fluoro-4-[(2-methyl-1H-imidazol-1-yl)methyl]phenyl}-5-(2-methylpropyl)thiophen-2-yl)sulfonyl]urea trifluoroacetic acid]
